Laboratory results as given in patent US20170029388A1, “Treatment of Neurodegenerative Diseases with Asparagine Endopeptidase (AEP) Inhibitors and Compositions Related Thereto” (INTERCONTINENTAL GREAT BRANDS LLC, priority 2014, published 2017).

What was measured:
CYP3A = experiment: CYP inhibition screening, CYP3A-Testosterone; assay type: in vitro ADME
CYP2C19 = CYP2C19 (Homo sapiens, UniProt P33261); experiment: CYP inhibition screening, CYP2C19; assay type: in vitro ADME
AEP = biological target: T1, AEP (Homo sapiens, UniProt Q99538); experiment: Time course inactivation assays (progress curves); assay type: biochemical
T1 construct: tested with purified active AEP, IC50 values for the top 8 candidates were found; purchased Sino Biological
T1 sequence (Q99538 18-323 limits assumed): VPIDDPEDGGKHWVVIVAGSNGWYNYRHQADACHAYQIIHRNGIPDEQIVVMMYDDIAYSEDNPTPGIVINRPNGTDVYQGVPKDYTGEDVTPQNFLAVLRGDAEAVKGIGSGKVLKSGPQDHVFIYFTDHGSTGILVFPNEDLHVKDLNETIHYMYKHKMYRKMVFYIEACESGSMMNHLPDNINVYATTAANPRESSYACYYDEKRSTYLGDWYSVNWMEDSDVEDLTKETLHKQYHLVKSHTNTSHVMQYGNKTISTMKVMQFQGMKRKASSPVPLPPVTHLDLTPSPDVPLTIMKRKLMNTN
Protocol: KI values for each inhibitor were determined by global fits to the competitive inhibition equation. C. Time course inactivation assays were used to generate progress curves, depicting product formation as a function of time. […] E. Time course inactivation assays were used to generate progress curves, depicting product formation as a function of time. Pseudo first-order rate constants were obtained at each concentration of compound BB1. F. Re-plot of the pseudo first-order rate constants, kobs, vs. the concentration of compound BB1.
To continue to assess the mechanism utilized by the compounds to inhibit AEP, the inhibition kinetics were determined for compound, 11, as well as compound BB1, in an attempt to confirm that the thiol moiety is competitively inhibiting the enzyme. […] The resulting Michaelis-Menten plots for each compound seem be indicative of competitive inhibition. […] Since BB1 contains a thiol group, it can form a disulfide bond with the active-site cysteine of AEP. […] Additionally, plotting the pseudo-first-order rate constants of inhibition, kobs, which were determined from the progress curves, yielded a hyperbolic curve, consistent with a two-step mechanism of inactivation (FIG. 6D). […] However, the kobs versus inhibitor concentration plot yielded a straight line, maybe due to the rapid disulfide formation reaction (FIG. 6F).
Progress curves were generated by incubating 5 μM Z-AAN-AMC and the specified concentration of inhibitor in assay buffer at 37° C. for 10 min. The reaction was initiated by the addition of 50 nM AEP and quenched after 10 min. The concentration of the product was determined from an AMC standard curve and the data was fit by nonlinear regression. Since the curves were nonlinear, they were fit to equation 5, using the GraFit version 5.0.11 software package, […]
[Product]=νi(1−e^−kobs.app*t)/kobs.app (eq 5), where νi is the initial velocity, kobs.app is the apparent pseudo-first order rate constant for inactivation, and t is time. […]

Cathepsin-L = Cathepsin-L (Homo sapiens, UniProt P07711); experiment: Cathepsin-L enzymatic assay (specificity); assay type: biochemical
Protocol: Purified recombinant enzyme was incubated with various concentrations of inhibitor in appropriate assay buffers in the presence of increasing concentrations of inhibitor. The formation of fluorescent product was monitored in duplicate reactions and the data was fit to appropriate equations to calculate the IC50 values.
To identify small-molecule inhibitors of AEP, a high-throughput screen was designed in conjunction with the Emory Chemical Biology Discovery Center. The screen incorporated mouse kidney lysates to assay a 54,384 compound library. […] Additional structural analysis and grouping allowed the compounds to be sorted into 8 distinct backbone families. […] The specificity of the compounds was also determined using four major cysteine proteases (FIG. 2).
Cathepsin-L—100 nM enzyme was pre-incubated with inhibitor in assay buffer (100 mM Sodium Acetate pH 5.5, 1 mM EDTA) for 10 min at 37° C. The reaction was initiated upon addition of 25 μM substrate (D-Val-Leu-Lys-AMC (Bachem)).

[1] = biological target: T2, AEP in human B lymphoblastoid Pala cells (Homo sapiens, UniProt Q99538); experiment: IC50 assays in intact Pala cells; assay type: cell-based; conditions: 2 hr incubation, residual AEP activity in lysate
T2 construct: human B lymphoblastoid pala cells, which are rich in endogenous AEP; endogenous in cells; host or cells: Pala cells (human B lymphoblastoid)
Protocol: The cells were incubated with inhibitors for 2 hrs then cells washed, harvested and lysed and the residual enzymatic activity was determined. Lysate was normalized by Bradford assay and the experiment was performed in triplicate and the mean results and SEM were plotted.
In an attempt to assess the activity of the compounds in intact cells, the compounds were incubated with human B lymphoblastoid pala cells, which are rich in endogenous AEP and have been used for inhibiting AEP in cellular assay.
Human B Lymphoblastoid Pala cells, which express high concentrations of AEP, were cultured in RPMI-1640, supplemented with 10% FBS, 2 mM L-Glutamine, 100 units/mL Penicillin, 100 μg/mL Streptomycin. Various concentrations of each compound were incubated with the Pala cells for 2 hr at 37° C. Cells were collected, washed twice with PBS and lysed in Lysis Buffer (20 mM Citric Acid, 60 mM Disodium Hydrogen Orthophosphate, 1 mM EDTA, 0.1% CHAPS, pH 5.8). The protein concentrations were normalized by Bradford assay and lysates were assayed with 5 μ,M Cbz-Ala-Ala-Asn-AMC. […] Data were analyzed with GraFit version 5.0.11 software package.

Sequence of CYP2C19 (P33261 whole entry): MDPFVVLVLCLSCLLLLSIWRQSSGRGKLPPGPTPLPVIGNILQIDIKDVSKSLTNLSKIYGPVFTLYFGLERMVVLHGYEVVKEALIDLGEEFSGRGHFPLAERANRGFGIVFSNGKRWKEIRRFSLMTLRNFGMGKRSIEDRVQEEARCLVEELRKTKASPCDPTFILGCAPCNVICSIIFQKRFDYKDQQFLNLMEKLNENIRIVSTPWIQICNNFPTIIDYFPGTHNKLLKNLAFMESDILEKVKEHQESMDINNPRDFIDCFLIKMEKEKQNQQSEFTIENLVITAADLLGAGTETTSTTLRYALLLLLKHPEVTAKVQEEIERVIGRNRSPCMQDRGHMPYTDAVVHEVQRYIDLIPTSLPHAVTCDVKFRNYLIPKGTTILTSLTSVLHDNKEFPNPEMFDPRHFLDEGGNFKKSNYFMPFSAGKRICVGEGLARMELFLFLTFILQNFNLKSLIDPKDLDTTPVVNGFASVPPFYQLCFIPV
Sequence of Cathepsin-L (P07711 114-333, species assumed): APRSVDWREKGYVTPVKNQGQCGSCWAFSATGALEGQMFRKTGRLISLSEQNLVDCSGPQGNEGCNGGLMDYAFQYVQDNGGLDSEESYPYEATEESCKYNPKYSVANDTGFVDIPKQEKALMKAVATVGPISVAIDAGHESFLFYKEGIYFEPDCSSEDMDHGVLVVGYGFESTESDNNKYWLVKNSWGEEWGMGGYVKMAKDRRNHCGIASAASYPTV

Q: With `Nc1ccc(N2CCOCC2)c2nonc12` [Compound 11] as the molecule, how does the “CYP inhibition, CYP3A-Testosterone” value (CYP3A; test concentration 3 μM) read?
A: 4.1%

Q: And the “CYP inhibition, CYP3A-Testosterone” value (CYP3A; test concentration 10 μM)?
A: 21.6%

Q: And the “CYP inhibition, CYP2C19” value (CYP2C19; test concentration 3 μM)?
A: 4.4%

Q: And the “CYP inhibition, CYP2C19” value (CYP2C19; test concentration 10 μM)?
A: 6.8%

Q: What about the “type of inactivation from progress curves” value (AEP) of the same molecule?
A: irreversibly inactivates AEP

Q: For `Cn1c(=O)[nH]c(=O)c2c1nc(S)n2CC(O)COc1ccc(Cl)cc1` (stereo not shown) [Compound 38], which “CYP inhibition, CYP3A-Testosterone” value (CYP3A; test concentration 3 μM) is on record?
A: −6.0%

Q: What about the “CYP inhibition, CYP3A-Testosterone” value (CYP3A; test concentration 10 μM) of the same molecule?
A: 2.4%

Q: What about the “CYP inhibition, CYP2C19” value (CYP2C19; test concentration 3 μM) of the same molecule?
A: −12.0%

Q: And the “CYP inhibition, CYP2C19” value (CYP2C19; test concentration 10 μM)?
A: 9.5%

Q: What does the source list for `Sc1nnc(Nc2ccccc2)s1` [Compound BB1]?
A: selectivity for AEP over Cathepsin-L (Cathepsin-L): about 38 fold; IC50 in intact Pala cells [1]: slightly larger IC50 values; type of inactivation from progress curves (AEP): slow-binding inhibitor; second-order rate constant of inhibition, kinact/KI (AEP; slope of kobs versus inhibitor concentration): 3.3e+06 min⁻¹ M⁻¹
